# Experiments:
# [1] = tested on: J774A1 macrophages infected with alad/pbgd double transfectants; assay: Intracellular transgenic amastigotes and macrophages per culture after ALA; type: cell-based, mouse; conditions: 1-2 mM ALA
# Experimental: J774A1 cells were infected in vitro with alad/pbgd double transfectants of L. amazonensis at a promastigote-to-macrophage ratio of 10:1. Infected cultures were maintained at 35° C. with daily medium renewal for 42 days. Cultures were split equally into two, one with and the other without the addition of 1-2 mM ALA 3 times on days 2, 26 and 40 post-infection (arrows). The total number of intracellular amastigotes (left) and macrophages (right) per culture were estimated at the time points indicated, as described (Chang, 1980). Note: Decrease of intracellular amastigotes in number after the 1st 2 ALA treatments.
# Intra-macrophage amastigotes are lysed selectively when rendered uroporphyric in situ, as determined by quantitative analysis of parasites and macrophages in such infected cultures (FIG. 15). This observation further strengthens the use of porphyric Leishmania as a live model for vaccine delivery. We observed this by using macrophages infected with the double transfectants. The infected cultures were split equally into 2 identical sets. In a total period of 42 days, one set received 3 separate ALA treatments, each pulsed for ˜24 hrs, at different time points after infection, while the other set received no treatments (see legend to FIG. 15 for experimental conditions). […]
# [2] = tested on: Leishmania donovani DD8; assay: Hamster vaccination, Experiment 2, challenge with L. donovani; type: in vivo, Syrian Golden hamsters
# From the text: The values for body weights were from all animals available at specific time points. Two animals were sacrificed per group per time point for assessing spleen weights and parasite loads;
# Impression smears (Left panel) of cut spleens were Geimsa-stained and examined microscopically under oil immersion lens to enumerate amastigotes per 1,000 splenic nuclei as a measure of parasite loads (Right Panel). Note: Parasite loads decrease precipitously after day 45 in contrast to the control groups. The data are consistent with the data for animal body weights and spleen weights; and
# The 2nd experiment was designed to verify and to strengthen the results of the 1st experiment by including 2 additional control groups. One is to treat animals with ALA alone so as to eliminate the potential contribution of this metabolite to the outcome observed. Another is to include pbgd single transfectants (ST) as an additional non-porphyric control to ascertain that the prophylactic effects observed are independent of factors specific to DT or L. amazonensis infection alone. There is some indication of this in the 1st experiment for “vaccination” of hamsters with the DT−ALA+LD group whose splenic parasite loads remained high, but the amastigotes look degenerative (FIG. 20). Except for “vaccination” on the back and illumination with white light, experimental conditions otherwise followed those in the 1st as follows:
# A total of 50 Syrian Golden hamsters (40-45 gm) were used 10 per group for each of the following experimental and control groups:
# Day 6 (Sep. 28, 2004): Harvest and resuspend cells for inoculation intradermally to a shaved area (˜2 cm×2 cm) on the back of the animals as follows:
# Days 9-12 (Oct. 1-4, 2004): inject the same site of each animal daily 4× with 20 ul […] ALA solution
# Days 13-17 (Oct. 5-9, 2004): Illuminate caged animals from 9 AM to 5 PM daily for five days under white light [Four bulbs of 100 W (Phillips)+2 tube lights of 40 W in an AC room of 6 ft×6 ft×10 ft] 2 ft above, keeping a constant temperature of 26-27° C.
# […] (Oct. 25, 2004): Challenge 9 animals of each group with 107 DD8 strain of L. donovani amastigotes/animal by intracardiac route.
# Day 78 (Dec. 9, 2004): Parasitological/immunological evaluations-45 days post-challenge (FIG.).
# Day 93 (Dec. 24, 2004): Parasitological/immunological evaluations-60 days post-challenge (FIG.).
# Day 147 (Feb. 16, 2005): survivors left of a total of 4 animals 114 days after challenge, excluding 6 sacrificed for experimentation on days 0, 45, and 60.
# [3] = tested on: hamster lymph node mononuclear cells; assay: Proliferation of lymph node cells to Con-A and Leishmania soluble antigens, tritiated thymidine; type: cell-based; conditions: 45 days after challenging infection, 20 ug/ml antigen
# Experimental: Lymph nodes of hamsters from experimental and control groups, as indicated, were used 45 days after challenging infection to prepare mononuclear cell-suspension (10^6/ml). Aliqouts of 100 ul were cultured in 96 well flat bottom tissue culture plates (Nunc, Denmark). 100 ul of Conconavalin A or soluble L. donovani promastigote antigens were added to each well, giving a final concentration of 10 ug/ml and 20 ug/ml, respectively. Cultures were prepared in triplicate for each sample and incubated at 37° C. and 5% CO2 for 3 days and 5 days for Con-A treated and antigen-treated cells, respectively. Eighteen hours prior to termination of incubation of cultures, 0.5 uCi of tritiated-thymidine was added to each well. Cells were harvested on to glass fiber mats (Whatman) for liquid scintillation counting.
smiles,measurement,setting,value
"NCC(=O)CCC(=O)O [ALA, delta-aminolevulinate]",growth of J774A1 macrophages,[1],unaffected
same,survivors left of a total of 4 animals,[2]; 114 days after challenge,0/4
same,immunoprophylactic effect,[2]; ALA treatment alone,ineffective
same,"splenic parasite loads, amastigotes in impression smears",[2]; day 45 to day 60 post challenge,abundant in number
same,splenomegaly by spleen weight,[2]; days 45 and 60 post-challenge,most pronounced
same,lymph node cell response to LSA,[3],virtually no response
